What is called IC50 is the concentration at which inhibition is half-maximal.

The text below walks through data of US20220153766A1, “CONDENSED TRICYCLIC COMPOUND USED AS KINASE INHIBITOR” (Hangzhou Innogate Pharma Co., Ltd., priority 2019, published 2022).

For experiment [1], the target named is Ba/F3_EGFR del19/T790M/C797S cells (Homo sapiens, UniProt P00533, T790M/C797S, cells depend on it, form not given). The experiment can be described thus: Ba/F3_EGFR (del19-T790M-C797S) cell proliferation inhibition, CTG, method 1. The class given is cell-based. The following applies: 700 cells/well, 72 h, read-out: Ba/F3_EGFR (del19-T790M-C797S) cell proliferation inhibition (IC50 value) Method 1. The protocol:
The cells were cultured in a 37° C., 5% CO2 incubator.
Cell plating and compound treatment: 1) Cells are routinely cultured until the cell saturation is 80%-90%, and when the number reaches the requirement, the cells are collected. 2) Resuspend in the corresponding fresh medium, take a small amount of cells to count, and prepare a cell suspension with a suitable density. 3) Inoculate the cell suspension into a 384-well plate at 700 cells/well, 30 μL per well. 4) Use Echo to add the compound to the corresponding cell well. The maximum starting concentration of the compound is 1-10 μM, 3 folds dilution, 8 concentrations.
CTG method detection: 1) Add 30 μL of CTG reagent (CelltiterGlo kit) to each well, and let it stand for 30 minutes at 37° C. and 5% CO2 in the dark. 2) Use Envision instrument to read the chemiluminescence signal value.
Data analysis: IC50 results are analyzed by GraphPad Prism 6 software. […] X: log value of compound concentration; Y: inhibition rate (% inhibition); inhibition rate (% inhibition)=(blank control well reading−compound well reading)/(blank control well reading−positive control reading)×100.

The next experiment concerns the target EGFR (C797S) (Homo sapiens, UniProt P00533, C797S). In words: EGFR (C797S) kinase activity inhibition, Lantha screen Assay. In kind it is biochemical. The following applies: kinase 10 nM, ATP 0.1 μM. How it is done:
1. EGFR (C797S) Kinase Activity Inhibition Experiment: The Lantha screen Assay method was used to test the inhibitory activity of the compounds at a kinase EGFR (C797S) concentration of 10 nM and an ATP concentration of 0.1 μM. The control samples were Staurosporine. Experimental Steps: […] 2) Control sample Staurosporine and test samples preparation: Staurosporine and the compounds of the embodiment of the present invention are formulated into a gradient concentration solution in 100% DMSO, and diluted to 10% DMSO with the above-mentioned buffer, and added to a 384-well plate. For example, if the initial concentration of the compound is 10 μM, 100% DMSO is used to prepare a 1000 μM solution, and 10 concentration gradients are diluted, and 100 nL solution is transferred to a 384-well plate with Echo*LIQUID HANDLE RS (LABCYTE, USA). […] Transfer 5 μL to the 384-well plate and incubate with the compound for 10-15 minutes. […] Transfer 5 μL to the 384-well plate to initiate the reaction, and incubate at room temperature for 30 minutes. [table] 5) Use TR-Fret dilution buffer to prepare 2-fold detection solution. The final concentration of Antibody is 2 nM and the final concentration of EDTA is 10 mM. Transfer 10 μL of detection solution to the reaction wells of the 384-well plate, shake and mix, and incubate at room temperature for 60 min. 6) Read the ratio of excitation at 340 nm and emission at 520 nm to 495 nm on Envision, and calculate the inhibition rate. 7) Fit IC50 with XL-fit software.

Another experiment concerns the target ALK (Homo sapiens, UniProt Q9UM73). In words: ALK kinase activity inhibition, Caliper mobility shift assay, method 1. In kind it is biochemical. The protocol: 2. ALK Kinase Activity Inhibition Experiment: Method 1: In vitro enzymatic activity of ALK was measured using Caliper mobility shift assay. […] Add 10 μL of 2.5-fold enzyme solution and incubate at room temperature for 10 minutes, then add 10 μL of 2.5-fold substrates (Peptide FAM-P22 and ATP) solution. […] Read conversion rate data on Caliper EZ Reader II (Caliper Life Sciences). Convert the conversion rate into inhibition rate (% inhibition=(max−conversion rate)/(max−min)*100). Max refers to the conversion rate of the DMSO control, and min refers to the conversion rate without enzyme activity. With the compound concentration and inhibition rate on the abscissa and ordinate, draw the curve, use XLFit excel add-in version 5.4.0.8 software to fit the curve and calculate the IC50.

In a further experiment the target is MAP4K1 (HPK1) (Homo sapiens, UniProt Q92918). In words: MAP4K1 (HPK1) kinase activity inhibition, Caliper mobility shift assay. The class given is biochemical. The note with it: kinase 1.25 nM, ATP 10.1 μM. The protocol: 4. MAP4K1 (HPK1) Kinase Activity Inhibition Experiment: Caliper mobility shift assay was used to detect the inhibitory effect of the compound on MAP4K1 (HPK1) kinase activity. The test concentration of the compound starts at 500 nM, and is diluted 5 folds into 5 concentration points. Use a dispenser Echo 550 to transfer 250 nL 100-fold final concentration of the compound to the target plate 3573, add 10 μL of MAP4K1 (HPK1) kinase solution with a final concentration of 1.25 nM, and incubate for 10 minutes at room temperature (the negative control well contains 10 μL kinase buffer and 250 nL 100% DMSO; the positive control well contains 10 μL kinase solution and 250 nL 100% DMSO). On the kinase MAP4K1 (HPK1), add 15 μL of ATP with a final concentration of 10.1 μM and 3 μM substrate peptide No. 25 mixed solution to react for 120 minutes. Add 30 μL of stop solution containing EDTA to stop the kinase reaction. Use Caliper EZ Reader to read the conversion rate. Inhibition rate %=(Average positive control conversion rate %−Sample conversion rate %/(Average positive control conversion rate %−Average negative control conversion rate %). Among them: negative control wells represent the conversion rate readings without enzyme activity; positive control wells represent the conversion rate readings of wells without compound inhibition. Take the log value of the concentration as the X-axis, and the percentage inhibition rate on the Y-axis. Log (inhibitor) vs. response—Variable slope of analysis software GraphPad Prism 5 was used to fit the curve to obtain the IC50 value of each compound on the enzyme activity. Calculation formula: Y=Bottom+(Top−Bottom)/(1+10 ^((Log IC50−X)*HillSlope)).
Chain of MAP4K1 (HPK1) (Q92918 whole entry): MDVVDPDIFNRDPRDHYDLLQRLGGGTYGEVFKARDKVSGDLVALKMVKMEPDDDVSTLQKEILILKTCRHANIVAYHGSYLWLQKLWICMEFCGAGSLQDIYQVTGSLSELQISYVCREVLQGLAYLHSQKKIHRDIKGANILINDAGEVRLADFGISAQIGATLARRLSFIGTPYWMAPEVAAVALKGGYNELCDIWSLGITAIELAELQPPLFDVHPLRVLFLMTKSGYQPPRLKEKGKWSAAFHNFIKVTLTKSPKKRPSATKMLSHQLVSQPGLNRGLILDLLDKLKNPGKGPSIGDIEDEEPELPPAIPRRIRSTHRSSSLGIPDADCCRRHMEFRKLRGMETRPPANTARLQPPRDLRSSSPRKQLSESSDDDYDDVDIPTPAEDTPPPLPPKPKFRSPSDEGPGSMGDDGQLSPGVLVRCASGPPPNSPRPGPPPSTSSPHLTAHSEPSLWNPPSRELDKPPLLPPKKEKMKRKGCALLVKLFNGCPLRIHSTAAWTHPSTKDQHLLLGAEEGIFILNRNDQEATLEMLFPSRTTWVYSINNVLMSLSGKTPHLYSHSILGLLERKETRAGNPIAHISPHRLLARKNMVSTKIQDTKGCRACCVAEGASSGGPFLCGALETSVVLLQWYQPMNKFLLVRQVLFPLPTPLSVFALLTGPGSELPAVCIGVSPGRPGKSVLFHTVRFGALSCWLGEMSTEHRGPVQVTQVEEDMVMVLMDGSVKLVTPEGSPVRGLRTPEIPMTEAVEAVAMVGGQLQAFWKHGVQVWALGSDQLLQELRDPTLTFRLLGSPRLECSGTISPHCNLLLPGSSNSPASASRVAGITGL

Chain of EGFR (C797S) (P00533 25-1210 C797S): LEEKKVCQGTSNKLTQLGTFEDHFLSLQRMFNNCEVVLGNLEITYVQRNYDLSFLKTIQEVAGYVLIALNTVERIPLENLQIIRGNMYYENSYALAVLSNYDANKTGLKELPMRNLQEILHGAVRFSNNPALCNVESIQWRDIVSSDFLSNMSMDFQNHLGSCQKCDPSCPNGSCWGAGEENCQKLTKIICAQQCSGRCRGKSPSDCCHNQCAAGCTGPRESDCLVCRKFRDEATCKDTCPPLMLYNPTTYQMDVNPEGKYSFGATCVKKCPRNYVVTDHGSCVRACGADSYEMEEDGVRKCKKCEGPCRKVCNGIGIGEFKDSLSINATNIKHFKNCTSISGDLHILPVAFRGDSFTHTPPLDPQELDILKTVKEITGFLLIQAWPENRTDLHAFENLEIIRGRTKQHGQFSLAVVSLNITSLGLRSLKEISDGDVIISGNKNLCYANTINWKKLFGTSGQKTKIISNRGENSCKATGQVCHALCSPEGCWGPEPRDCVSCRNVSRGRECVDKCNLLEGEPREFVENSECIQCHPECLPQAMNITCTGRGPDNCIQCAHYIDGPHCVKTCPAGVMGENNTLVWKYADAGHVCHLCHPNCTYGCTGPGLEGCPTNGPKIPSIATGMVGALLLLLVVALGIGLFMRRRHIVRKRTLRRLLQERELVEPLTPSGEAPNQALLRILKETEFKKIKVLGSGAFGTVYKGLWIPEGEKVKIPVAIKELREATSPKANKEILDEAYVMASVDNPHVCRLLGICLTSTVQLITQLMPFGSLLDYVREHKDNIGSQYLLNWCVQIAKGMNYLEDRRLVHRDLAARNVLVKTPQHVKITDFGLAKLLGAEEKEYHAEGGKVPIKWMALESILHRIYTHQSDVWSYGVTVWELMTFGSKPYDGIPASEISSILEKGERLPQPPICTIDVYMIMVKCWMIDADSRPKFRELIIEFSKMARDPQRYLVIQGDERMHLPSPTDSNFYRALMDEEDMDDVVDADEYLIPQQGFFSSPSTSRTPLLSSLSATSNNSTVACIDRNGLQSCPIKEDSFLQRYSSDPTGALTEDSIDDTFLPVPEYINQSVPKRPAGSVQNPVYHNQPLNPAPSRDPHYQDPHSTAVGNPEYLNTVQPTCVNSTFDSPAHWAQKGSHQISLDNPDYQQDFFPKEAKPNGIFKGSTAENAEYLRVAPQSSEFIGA
Chain of ALK (Q9UM73 19-1620): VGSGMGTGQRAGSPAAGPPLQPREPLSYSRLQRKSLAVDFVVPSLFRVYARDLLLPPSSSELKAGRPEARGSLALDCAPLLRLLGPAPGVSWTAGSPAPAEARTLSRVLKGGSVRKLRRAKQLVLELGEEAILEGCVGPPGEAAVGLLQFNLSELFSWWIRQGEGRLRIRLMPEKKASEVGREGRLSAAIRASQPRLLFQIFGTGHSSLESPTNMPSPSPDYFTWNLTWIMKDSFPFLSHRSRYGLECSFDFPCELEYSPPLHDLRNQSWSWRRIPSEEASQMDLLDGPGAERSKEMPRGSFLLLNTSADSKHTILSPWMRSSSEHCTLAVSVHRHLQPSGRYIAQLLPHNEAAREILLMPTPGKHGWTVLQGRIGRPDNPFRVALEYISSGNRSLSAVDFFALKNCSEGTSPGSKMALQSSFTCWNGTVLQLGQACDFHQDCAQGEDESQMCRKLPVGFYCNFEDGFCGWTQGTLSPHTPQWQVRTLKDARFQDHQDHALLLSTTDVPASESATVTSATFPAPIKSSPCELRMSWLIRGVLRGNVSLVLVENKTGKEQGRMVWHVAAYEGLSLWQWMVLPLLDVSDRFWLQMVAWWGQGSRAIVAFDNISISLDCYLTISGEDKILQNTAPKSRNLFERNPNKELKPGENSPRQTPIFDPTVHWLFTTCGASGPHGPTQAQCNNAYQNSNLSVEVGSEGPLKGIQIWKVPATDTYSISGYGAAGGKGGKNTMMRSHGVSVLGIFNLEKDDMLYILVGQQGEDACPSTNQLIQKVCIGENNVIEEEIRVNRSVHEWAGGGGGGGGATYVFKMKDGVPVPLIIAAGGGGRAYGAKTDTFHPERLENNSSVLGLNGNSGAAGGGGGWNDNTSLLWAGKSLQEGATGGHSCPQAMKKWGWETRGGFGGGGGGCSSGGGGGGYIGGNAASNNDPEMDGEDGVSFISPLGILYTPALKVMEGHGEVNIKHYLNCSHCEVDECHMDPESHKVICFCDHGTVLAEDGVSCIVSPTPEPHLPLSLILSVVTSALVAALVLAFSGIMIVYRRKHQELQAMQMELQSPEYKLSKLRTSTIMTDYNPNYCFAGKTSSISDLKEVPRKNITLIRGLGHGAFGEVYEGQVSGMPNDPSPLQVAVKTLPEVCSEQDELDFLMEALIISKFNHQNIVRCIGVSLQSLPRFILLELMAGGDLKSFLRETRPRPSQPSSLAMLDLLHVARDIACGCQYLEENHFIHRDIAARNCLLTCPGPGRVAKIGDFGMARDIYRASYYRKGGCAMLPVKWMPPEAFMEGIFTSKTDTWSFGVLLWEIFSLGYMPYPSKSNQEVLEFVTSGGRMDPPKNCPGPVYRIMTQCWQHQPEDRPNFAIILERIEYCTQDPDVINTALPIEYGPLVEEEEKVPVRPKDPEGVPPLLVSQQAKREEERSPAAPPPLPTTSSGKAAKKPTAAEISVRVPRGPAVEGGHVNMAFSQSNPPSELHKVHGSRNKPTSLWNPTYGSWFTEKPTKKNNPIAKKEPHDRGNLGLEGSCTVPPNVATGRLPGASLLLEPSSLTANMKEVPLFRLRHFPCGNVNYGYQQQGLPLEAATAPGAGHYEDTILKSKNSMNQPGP
Chain of Ba/F3_EGFR del19/T790M/C797S cells (P00533 with tags, fused parts or gaps DEL746-750/T790M/C797S, form open): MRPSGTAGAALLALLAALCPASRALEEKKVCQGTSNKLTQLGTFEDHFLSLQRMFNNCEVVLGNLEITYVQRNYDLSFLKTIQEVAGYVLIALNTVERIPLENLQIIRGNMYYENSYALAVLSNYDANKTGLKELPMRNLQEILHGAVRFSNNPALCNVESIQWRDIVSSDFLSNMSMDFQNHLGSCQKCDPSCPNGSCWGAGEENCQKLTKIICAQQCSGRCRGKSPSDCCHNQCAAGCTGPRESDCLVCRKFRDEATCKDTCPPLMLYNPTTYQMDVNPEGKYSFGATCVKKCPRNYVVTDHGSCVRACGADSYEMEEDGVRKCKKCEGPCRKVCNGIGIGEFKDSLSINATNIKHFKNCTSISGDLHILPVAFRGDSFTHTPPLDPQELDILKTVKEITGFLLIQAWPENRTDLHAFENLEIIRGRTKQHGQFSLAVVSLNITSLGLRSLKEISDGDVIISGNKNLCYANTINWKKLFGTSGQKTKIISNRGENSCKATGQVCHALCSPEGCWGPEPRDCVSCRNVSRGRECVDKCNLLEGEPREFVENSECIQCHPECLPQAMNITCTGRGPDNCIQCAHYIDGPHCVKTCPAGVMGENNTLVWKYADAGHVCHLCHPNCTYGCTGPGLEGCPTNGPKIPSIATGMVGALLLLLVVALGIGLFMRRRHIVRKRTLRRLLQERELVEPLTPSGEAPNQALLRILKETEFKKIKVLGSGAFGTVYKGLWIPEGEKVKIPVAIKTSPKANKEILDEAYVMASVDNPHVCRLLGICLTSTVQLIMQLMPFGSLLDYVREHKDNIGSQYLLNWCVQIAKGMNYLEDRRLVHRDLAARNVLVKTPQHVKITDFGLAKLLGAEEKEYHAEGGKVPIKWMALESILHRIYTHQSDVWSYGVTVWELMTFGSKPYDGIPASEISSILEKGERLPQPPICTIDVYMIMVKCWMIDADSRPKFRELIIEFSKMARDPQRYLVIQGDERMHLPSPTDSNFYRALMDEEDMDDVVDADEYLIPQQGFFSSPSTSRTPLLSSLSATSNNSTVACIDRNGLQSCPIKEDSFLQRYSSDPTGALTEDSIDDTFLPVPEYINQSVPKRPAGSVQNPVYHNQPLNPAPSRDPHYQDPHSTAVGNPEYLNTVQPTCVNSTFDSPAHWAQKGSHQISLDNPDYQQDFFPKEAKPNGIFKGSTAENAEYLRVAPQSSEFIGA

`COC/C=C/C(=O)N1CCN2c3ccc(Nc4ncc(Cl)c(Nc5ccccc5P(C)(C)=O)n4)cc3OC[C@H]2C1` [Compound 20R]: the GI50 in experiment [1] lay in the range of 20 to 100 nM.
In the case of `CN1CCC(N2CCN3c4ccc(Nc5ncc(Cl)c(Nc6ccccc6P(C)(C)=O)n5)cc4OC[C@H]3C2)CC1` [Compound 11R], the IC50 against EGFR (C797S) and at ALK was 1 to 50 nM each time. Further, the GI50 in experiment [1] was under 20 nM.
For `Cc1cc(Nc2ncc(Cl)c(Nc3ccccc3P(C)(C)=O)n2)cc2c1N1CCNC[C@@H]1CO2` [Compound 23R], the GI50 in experiment [1] was 20 to 100 nM.
For the compound `CP(C)(=O)c1ccccc1Nc1nc(Nc2ccc3c(c2)OC[C@H]2CNCCN32)ncc1Cl` [Compound 4R], the IC50 at EGFR (C797S) and at ALK was 1 to 50 nM throughout. Besides, the GI50 in experiment [1] was 20 to 100 nM.
As to `CP(C)(=O)c1ccccc1Nc1nc(Nc2ccc3c(c2)OC[C@H]2CN(CC#N)CCN32)ncc1Cl` [Compound 9R], the IC50 was in the range of 250 to 1000 nM against EGFR (C797S) and 1 to 50 nM on ALK. For the same compound, in experiment [1], the GI50 was 20 to 100 nM.
Turning to `CN1CCN2c3ccc(Nc4ncc(Cl)c(Nc5ccccc5P(C)(C)=O)n4)cc3OCC2C1` (racemic) [Compound 1], the IC50 against EGFR (C797S) and on ALK was 1 to 50 nM in each case.
As to `C=CS(=O)(=O)N1CCN2c3ccc(Nc4ncc(Cl)c(Nc5ccccc5P(C)(C)=O)n4)cc3OC[C@H]2C1` [Compound 19R], at MAP4K1 (HPK1), the half-inhibitory concentration (IC50) was at most 1 nM. Further, the GI50 in experiment [1] was under 20 nM.
For `CP(C)(=O)c1ccccc1Nc1nc(Nc2ccc3c(c2)OC[C@H]2CN(CCO)CCN32)ncc1Cl` [Compound 7R], the values for the IC50 against EGFR (C797S) and at ALK were 50 to 250 nM and 1 to 50 nM, respectively.
For `C=CC(=O)N1CCN2c3ccc(Nc4ncc(Cl)c(Nc5ccccc5P(C)(C)=O)n4)cc3OC[C@H]2C1` [Compound 6R], the concentration for half-maximal inhibition (IC50) against EGFR (C797S) was 50 to 250 nM; at ALK, 1 to 50 nM. In experiment [1], the GI50 fell in the range of 20 to 100 nM.
Regarding `COCCCC(=O)N1CCN2c3ccc(Nc4ncc(Cl)c(Nc5ccccc5P(C)(C)=O)n4)cc3OC[C@H]2C1` [Compound 28R], the GI50 in experiment [1] lay in the range of 20 to 100 nM.
For the compound `CC(=O)N1CCN2c3ccc(Nc4ncc(Cl)c(Nc5ccccc5P(C)(C)=O)n4)cc3OC[C@H]2C1` [Compound 5R], the IC50 against EGFR (C797S) was 50 to 250 nM; on ALK, 1 to 50 nM. Moreover, the GI50 in experiment [1] was in the range of 100 to 200 nM.
The corresponding values for `CCN1CCN2c3ccc(Nc4ncc(Cl)c(Nc5ccccc5P(C)(C)=O)n4)cc3OC[C@H]2C1` [Compound 8R] are 1 to 50 nM, 1 to 50 nM and 20 to 100 nM.
Take `CN1CCN2c3ccc(Nc4ncc(Cl)c(Nc5ccccc5P(C)(C)=O)n4)cc3OC[C@@H]2C1` [Compound 1S]: the concentration for half-maximal inhibition (IC50) against EGFR (C797S) and at ALK was 1 to 50 nM throughout. Moreover, in experiment [1], the GI50 is under 20 nM.
`CP(C)(=O)c1ccccc1Nc1nc(Nc2ccc3c(c2)OC[C@@H]2COCCN32)ncc1Cl` [Compound 12S]: the results for the 50% inhibitory concentration (IC50) at EGFR (C797S) and on ALK were 50 to 250 nM and 1 to 50 nM, respectively.
`CP(C)(=O)c1ccccc1Nc1nc(Nc2ccc3c(c2)OC[C@H]2CN(CC(F)(F)F)CCN32)ncc1Cl` [Compound 13R]: the IC50 at EGFR (C797S) and on ALK was 50 to 250 nM throughout. The GI50 in experiment [1] lay within 20 to 100 nM.
As to `COCCN1CCN2c3ccc(Nc4ncc(Cl)c(Nc5ccccc5P(C)(C)=O)n4)cc3OC[C@H]2C1` [Compound 10R], the half-inhibitory concentration (IC50) against EGFR (C797S) and on ALK was 1 to 50 nM in each case. Besides, the GI50 in experiment [1] lay within 20 to 100 nM.
On to `CP(C)(=O)c1ccccc1Nc1nc(Nc2ccc3c(c2)OC[C@H]2CN(C4CCOCC4)CCN32)ncc1Cl` [Compound 3R], for which the IC50 against EGFR (C797S) and on ALK was 1 to 50 nM throughout. The GI50 in experiment [1] lay in the range of 20 to 100 nM.
Consider `C=CC(=O)N1CCN2c3ccc(Nc4ncc(Cl)c(Nc5ccccc5P(C)(C)=O)n4)cc3OC[C@@H]2C1` [Compound 6S], for which the IC50 on EGFR (C797S) and on ALK was 1 to 50 nM in each case. In experiment [1], the GI50 was 20 to 100 nM.
As to `C#CC(=O)N1CCN2c3ccc(Nc4ncc(Cl)c(Nc5ccccc5P(C)(C)=O)n4)cc3OC[C@H]2C1` [Compound 17R], in experiment [1], the GI50 was under 20 nM.
With `Cc1cc(Nc2ncc(Cl)c(Nc3ccccc3P(C)(C)=O)n2)cc2c1OC[C@@H]1CNCCN21` [Compound 24S], the GI50 in experiment [1] lay in the range of 20 to 100 nM.
With `CP(C)(=O)c1ccccc1Nc1nc(Nc2ccc3c(c2)OC[C@H]2CN(S(=O)(=O)C4CC4)CCN32)ncc1Cl` [Compound 2R], the IC50 against EGFR (C797S) is 50 to 250 nM; on ALK it was 1 to 50 nM. Besides, the GI50 in experiment [1] lay in the range of 20 to 100 nM.
On the same counts, the results for `CP(C)(=O)c1ccccc1Nc1nc(Nc2ccc3c(c2)OC[C@@H]2CNCCN32)ncc1Cl` [Compound 4S] are 1 to 50 nM, 1 to 50 nM and 20 to 100 nM.
